According to patent US11161839B2, “2-quinolone derived inhibitors of BCL6” (Cancer Research Technology Limited, priority 2017, dated 2021):
Values belong to the compound of their own block, whether it stands above or below them.

Experiments:
[1] = biological target: human BCL6 BTB domain (Trx-6xHis-BCL6) (Homo sapiens (Human), UniProt P41182); test: HTRF in vitro assay (BCL6 BTB domain / BCOR-AF633 peptide); format: binding; conditions: further generated data (Table 1b); 1 nM Trx-6xHis-BCL6, 0.5 nM anti-6xHis-Terbium cryptate
[2] = biological target: BCL6-NCOR2(SMRT) corepressor protein-protein interaction (Homo sapiens (Human), UniProt P41182); test: NanoBRET cell assay in transfected HEK293T cells; format: cell-based; conditions: further generated data (Table 2b); HEK293T cells, 6 hr; read-out: NanoBRET cell pIC50 (converted)
SU-DHL-4 cells = test: 14-day cell proliferation assay (CellTiter Glo); format: cell-based; conditions: Homo sapiens, SU-DHL4 cells, 14 days
Description: (§1) The volume of medium containing 2000 cells in the control well was calculated and this volume of cells was transferred from every well of the assay plates to the corresponding well of the fresh plates containing compound. After 14 days, CellTiter Glo reagent (Promega) was added to the medium in each well of the assay plate at a ratio of 1:2, mixed on a plate shaker, then incubated at room temperature for 10 minutes. Luminescence was measured using an Envision plate reader (Perkin Elmer) and the relative luminescence at each compound concentration, compared to DMSO alone, was calculated. IC50 were determined using a 4-parameter curve fit in Dotmatics (Bishops Stortford, UK).

BCL6 = BCL6 (Homo sapiens (Human), UniProt P41182); test: assays described in the Examples section (not specified which); conditions: tested compounds outside desired/preferred activity
Description: DC50 values (compound concentration at which 50% of endogenous BCL6 protein is degraded) were determined in SUDHL-4 cells (American Type Culture Collection) in an immunofluorescence-based assay using an InCell2200 high content imaging system (GE Healthcare). Briefly, 40 μL of lymphoma suspension cells cultured in RPMI 1640-10% FBS (Sigma-Aldrich or PAN Biotech UK Ltd) were platted on fibronectin (Sigma catalogue F1141)-coated 384 well Cell Carrier Ultra plate (Perkin Elmer catalogue 6057300) at 1.2 104 cells/well. After 20 hours cell culture at 37° C./C02 incubator, compounds were dispensed in the cell culture plate using ECHO550 acoustic dispenser (Labcyte, Inc.), as 8 point-concentration response (ranging from 5 nM to 10 μM) in 0.67% final DMSO concentration. Cells were incubated with compound for 2 hours at 37° C./C02 incubator followed by fixation in 4.5% formaldehyde (37% formaldehyde solution, Sigma catalogue F8775) at room temperature for 15 min. After fixing, cells were washed in 1×TBS (Tris Buffer Saline) using a Power Washer 384 (Tecan Group Ltd). Blocking and cell permeabilisation were performed by incubating the fixed cells for 1 hour at room temperature in 1×TBS, 5% BSA, 1% Triton X100, followed by three washes on PW384 plate washer. Primary and secondary antibodies were prepared in 1×TBS, 1% BSA, 0.2% Triton X100. BCL6 expression was detected by incubating the cells for 1 h30 with BCL6 rabbit polyclonal antibody (Sigma Catalogue HPA004899) at 1:250, 0.8 μg/ml, followed by 1 hour in chicken anti-Rabbit Alexa 488 conjugated antibody (Life Technology) at 1:500. After incubation in each antibody, cells were washes four times in 1×TBS-0.05% tween on PW384 plate washer. Cells were finally incubated for 60 min with nuclear staining RedDot2 dye (Biotium) at 0.5× the stock concentration in 1×TBS. BCL6 expression in the absence or presence of compound was detected on InCell2200 with 20× objective and quantified on InCell Analyser 3.7.2 workstation (GE Healthcare). The % response at each concentration was calculated by normalising BCL6 expression in the presence of compound to the appropriate high (DMSO) and low (DMSO with 7 μM CCT369260) controls.
as §1

SMILES: CC(Nc1cc(=O)n(C)c2ccc(Nc3nc(N4C[C@H](C)C[C@H](C)C4)nc(C(F)(F)F)c3Cl)cc12)c1ncccn1 (stereo partly drawn) [6-((5-chloro-2-((3S,5R)-3,5-dimethylpiperidin-1-yl)-6-(trifluoromethyl)pyrimidin-4-yl)amino)-1-methyl-4-((1-(pyrimidin-2-yl)ethyl)amino)quinolin-2(1H)-one]
- activity in the assays described in the Examples section (BCL6): not to exhibit the preferred activity

SMILES: CNC(=O)CNc1cc(=O)[nH]c2ccc(Nc3ccnc(Cl)c3C#N)cc12 [2-((6-((2-chloro-3-cyanopyridin-4-yl)amino)-2-oxo-1,2-dihydroquinolin-4-yl)amino)-N-methylacetamide]
- activity in the assays described in the Examples section (BCL6): did not exhibit the desired activity

SMILES: CC(CN(C)C)Nc1cc(=O)n(C)c2ccc(Nc3ccnc(Cl)c3C#N)cc12 (centres unmarked) [2-chloro-4-((4-((1-(dimethylamino)propan-2-yl)amino)-1-methyl-2-oxo-1,2-dihydroquinolin-6-yl)amino)nicotinonitrile]
- activity in the assays described in the Examples section (BCL6): did not exhibit the desired activity

SMILES: CCNc1cc(=O)n(C)c2ccc(Nc3ccnc(Cl)c3C#N)nc12 [2-chloro-4-((8-(ethylamino)-5-methyl-6-oxo-5,6-dihydro-1,5-naphthyridin-2-yl)amino)nicotinonitrile]
- activity in the assays described in the Examples section (BCL6): not to exhibit the preferred activity

SMILES: Cn1c(=O)cc(NCc2ncccn2)c2cc(Nc3ccnc(Cl)c3C#N)ccc21 [2-chloro-4-[[1-methyl-2-oxo-4-(pyrimidin-2-ylmethylamino)-6-quinolyl]amino]pyridine-3-carbonitrile]
- activity in the assays described in the Examples section (BCL6): not to exhibit the preferred activity

SMILES: Cn1c(=O)cc(NC2CCCNC2=O)c2cc(Nc3ccnc(Cl)c3C#N)ccc21 (centres unmarked) [2-chloro-4-((1-methyl-2-oxo-4-((2-oxopiperidin-3-yl)amino)-1,2-dihydroquinolin-6-yl)amino)nicotinonitrile]
- activity in the assays described in the Examples section (BCL6): did not exhibit the desired activity

SMILES: CC(Nc1cc(=O)[nH]c2ccc(Nc3ccnc(Cl)c3C#N)cc12)c1cnn(C)c1 (centres unmarked) [2-chloro-4-((4-((1-(1-methyl-1H-pyrazol-4-yl)ethyl)amino)-2-oxo-1,2-dihydroquinolin-6-yl)amino)nicotinonitrile]
- activity in the assays described in the Examples section (BCL6): did not exhibit the desired activity

SMILES: CN1CCC(Nc2cc(=O)n(C)c3ccc(Nc4ccnc(Cl)c4C#N)cc23)C1=O (centres unmarked) [2-chloro-4-((1-methyl-4-((1-methyl-2-oxopyrrolidin-3-yl)amino)-2-oxo-1,2-dihydroquinolin-6-yl)amino)nicotinonitrile]
- activity in the assays described in the Examples section (BCL6): not to exhibit the preferred activity

Second part, the compound after the results:

- HTRF pIC50 [1]: 6.99
- IC50 [2]: 676 nM
- GI50 (SU-DHL-4 cells): 440 nM
SMILES: C[C@@H]1CN(c2ncc(Cl)c(Nc3ccc4c(c3)c(NC(C)(C)c3ncccn3)nc(=O)n4C)n2)C[C@H](C)O1 [Example 26f, 6-[[5-chloro-2-[(2R,6S)-2,6-dimethylmorpholin-4-yl]pyrimidin-4-yl]amino-1-methyl-4-[(1-methyl-1-pyrimidin-2-yl)ethyl)amino]quinazolin-2-one:formic acid (1:1)]

- HTRF pIC50 [1]: 6.81
- IC50 [2]: 1380 nM
- GI50 (SU-DHL-4 cells): 2130 nM
SMILES: Cn1c(=O)cc(NC(C)(C)c2ncccn2)c2cc(Nc3ccnc(Cl)c3Cl)ccc21 [Example 6b, 6-((2,3-dichloropyridin-4-yl)amino)-1-methyl-4-((2-(pyrimidin-2-yl)propan-2-yl)amino)quinolin-2(1H)-one]

- HTRF pIC50 [1]: 7.33
- IC50 [2]: 589 nM
- GI50 (SU-DHL-4 cells): 1480 nM
SMILES: CC(Nc1cc(=O)n(C)c2ccc(Nc3ccnc(Cl)c3C#N)cc12)c1ncc(N2CCOC(C(F)(F)F)C2)cn1 (centres unmarked) [Example 10d, 2-chloro-4-((1-methyl-2-oxo-4-((1-(5-(2-(trifluoromethyl)morpholino)pyrimidin-2-yl)ethyl)amino)-1,2-dihydroquinolin-6-yl)amino)nicotinonitrile]

- HTRF pIC50 [1]: 7.45
- IC50 [2]: 490 nM
- GI50 (SU-DHL-4 cells): 460 nM
SMILES: CC(Nc1cc(=O)n(C)c2ccc(Nc3ccnc(Cl)c3C#N)cc12)c1ncc(-c2cnn(C)c2)cn1 (centres unmarked) [Example 10c, 2-chloro-4-((1-methyl-4-((1-(5-(1-methyl-1H-pyrazol-4-yl)pyrimidin-2-yl)ethyl)amino)-2-oxo-1,2-dihydroquinolin-6-yl)amino)nicotinonitrile]

- HTRF pIC50 [1]: 6.54
- IC50 [2]: 891 nM
- GI50 (SU-DHL-4 cells): 760 nM
SMILES: Cc1cc(C)n(-c2ncc(Cl)c(Nc3ccc4c(c3)c(N[C@H](C)C3CC3)cc(=O)n4C)n2)n1 [Example 14c, (R)-6-((5-chloro-2-(3,5-dimethyl-1H-pyrazol-1-yl)pyrimidin-4-yl)amino)-4-((1-cyclopropylethyl)amino)-1-methylquinolin-2(1H)-one]

- HTRF pIC50 [1]: 7.39
- IC50 [2]: 490 nM
- GI50 (SU-DHL-4 cells): 290 nM
SMILES: CC(Nc1cc(=O)n(C)c2ccc(Nc3ccnc(Cl)c3C#N)cc12)c1ncc(N2C[C@@H](C)O[C@@H](C)C2)cn1 (stereo partly drawn) [Example 10b, 2-chloro-4-((4-((1-(5-((2S,6R)-2,6-dimethylmorpholino)pyrimidin-2-yl)ethyl)amino)-1-methyl-2-oxo-1,2-dihydroquinolin-6-yl)amino)nicotinonitrile]

- HTRF pIC50 [1]: 7.50
- IC50 [2]: 240 nM
- GI50 (SU-DHL-4 cells): 450 nM
SMILES: Cn1c(=O)cc(NC(C)(C)c2ncccn2)c2cc(Nc3cc(C(=O)N4CC(C(F)(F)F)C4)nc(Cl)c3C#N)ccc21 [Example 8d, 2-chloro-4-((1-methyl-2-oxo-4-((2-(pyrimidin-2-yl)propan-2-yl)amino)-1,2-dihydroquinolin-6-yl)amino)-6-(3-(trifluoromethyl)azetidine-1-carbonyl)nicotinonitrile]

- HTRF pIC50 [1]: 7.58
- IC50 [2]: 912 nM
- GI50 (SU-DHL-4 cells): 1340 nM
SMILES: CC(Nc1cc(=O)n(C)c2ccc(Nc3ccnc(Cl)c3C#N)cc12)c1ncc(C2CCOCC2)cn1 (centres unmarked) [Example 10w, 2-chloro-4-[[1-methyl-2-oxo-4-[1-(5-tetrahydropyran-4-ylpyrimidin-2-yl)ethylamino]-6-quinolyl]amino]pyridine-3-carbonitrile]
